Test results: patent US20040259942A1, “Modulation of stat activity” (priority 2001, published 2004)

Columns and labels:
STAT3 = experiment: Serum-induced STAT3 tyrosine phosphorylation (immunoblot); format: cell-based, human
Experimental: (§1) For immunoprecipitation and immunoblotting experiments, cells were grown to confluence in 10 cm dishes and maintained in full medium or starved in serum-free medium overnight before the application of appropriate stimuli. Lysates were prepared in TBSN buffer (50 mM Tris-HCl pH7.5, 150 mM NaCl, 1 mM EDTA, 1% NP-40) supplemented with protease inhibitors (1 mM Na3 VO4, 10 mM Na4P2O7, 10 mM NaF, 5 mM EGTA, 10 mM Benzamidine, 0.2 mM PMSF and 1 μg/ml each of leupeptin, aprotinin, pepstatin). Lysates were cleared by centrifugation at 16,000×g for 10 minutes and used directly for immunoprecipitations or stored at −20° C. for further use.
Equal amounts of lysates were incubated with the appropriate antibody for 2 hours at 4° C.
(§2) Immune complexes were then allowed to bind to protein A-Sepharose beads for 1 hour at 4° C. and collected by centrifugation. Immunoprecipitates were washed three times in 100 mM Tris-HC1 pH 7.5, 100 nM NaCl, 1 mM EDTA, 0.1 mM PMSF, 0.5% NP-40. Thereafter, samples were taken up in sodium dodecyl sulphate (SDS) loading buffer and boiled for 5 min.
Samples were separated by electrophoresis through 6% polyacrylamide-SDS gels. Proteins were then transferred to polyvinylidene difluoride (PVDF) membranes with a semi-dry electroblotting apparatus. The membranes were incubated with appropriate primary antibodies at room temperature for 1 hour or 4° C. overnight according to suppliers' instructions, washed and stained with horseradish peroxidase-coupled secondary antibodies. The membranes were developed with an enhanced chemiluminescence kit (Amersham).
as §1, with “Na3VO4,” for “Na3 VO4,”, “aprotinin and” for “aprotinin,”, “use. AG490 was purchased from Sigma; PD153035 was provided by Glaxo-Smith-Kline and PD168393 was purchased from Calbiochem.” for “use.”
as §2, with “Equal amounts of lysates were incubated with the appropriate antibody for 2 hours at 4° C. Immune” for “Immune”, “in 10” for “in 100”, “mM Tris-HCl” for “mM Tris-HC1”, “100 mM” for “100 nM”

BR293 cells [1] = experiment: Cell proliferation assay (cell counting); format: cell-based, human; settings: for growth of cultured cells (confluence): full medium, 48 h, 100 μM (FIG. 16a)
Experimental: Equal numbers of BR293 and MDA-MB-468 cells were seeded in MEM containing 10% FCS into 10 cm dishes. […]. For the 48 time points, fresh medium containing the appropriate inhibitor was applied to the cells after 24 hours. Controls were allowed to grow for 48 hours in the absence of inhibitor. Thereafter, all the cells were washed twice with ice cold PBS, harvested and counted under a phase-contrast microscope. Values are expressed as averages+S.D. (n=3).
Equal numbers of BR293, MCF-10F, MCF-7, MDA-MB-468, HKEK293 and COS1 cells were seeded in the appropriate growth medium into 10 cm dishes. Cells were allowed to grow in the presence of various concentrations of OdDHL or OHHL for 24 or 48 hours. For the 48-hour time points, fresh medium containing the appropriate inhibitor was applied to the cells after 24 hours. Controls were allowed to grow for 48 hours in the absence of inhibitor. Thereafter, all the cells were washed twice with ice cold PBS, harvested and counted under a phase-contrast microscope. Values are expressed as averages ±S.D. (n=3).

BR293 cells [2] = experiment: DAPI staining, fluorescence microscopy (apoptosis); format: cell-based, human; settings: full medium (10% FCS); 24 h
Experimental: OdDHL blocks BC cell oroliferation and induces apoptosis. BR293 cells were grown in full medium (10% FCS) in the absence or presence of OdDHL or the control OHHL. After 24 h, cell were harvested, stained with DAPI and examined by fluorescence microscopy.

MCF-7 cells = experiment: DAPI staining, confocal microscopy (apoptosis); format: cell-based, human; settings: growing cells treated; 100 μM (FIG. 17)
Experimental: OdDHL induces apoptosis of BC cells (a) MCF-7 cells were cultured in full medium alone or in the presence of 1001M OdDHL or 100 μM OHHL. […] Left-hand panels show DAPI, right-hand panels show the corresponding phase contrast and middle panels the image overlays. (b) MDA-MB-468 cells were cultured in full medium alone or in the presence of 100 μM OdDHL or 100 μM OHHL. After 18 hours cells were fixed, stained and examined as in (a). (c) BR293, MCF-7 and MDA-MD-468 cells were cultured in full medium alone (lanes 1, 3, 5) or in the presence of 100 μM OdDHL (lanes 2, 4, 6) or 400 μM etoposide (lane 7). After 18 hours cells were lysed and analysed for PARP cleavage by Western blotting with an anti-PARP antibody. Full length PARP is labelled and the lower arrow indicates the major caspase cleavage fragment.

ERKs = experiment: ERK phosphorylation (Western blotting); format: cell-based, human; settings: for activation of ERKs by TPA (phosphorylation of ERK½): BR293 cells; for activation of ERKs in response to serum: result not shown
Experimental: ERKs are unaffected by OdDHL (a) BR293 cells were serum-starved (lane 1) or starved and stimulated with TPA for 30 min alone (lane 2) or in the presence of increasing concentrations of OdDHL (lanes 3-6) or 100 μM OHHL (lane 7). Cell lysates were prepared and analysed by Western blotting for ERK phosphorylation with an antibody specific for phospho-ERK½ (upper panel) and for ERK content with an antibody against ERKs (lower panel). (b) BR293 cells were serum-starved (lane 1) or starved and stimulated with Anisomycin for 30 min alone (lane 2) or in the presence of increasing concentrations of OdDHL (lanes 3-6) or 100 μM OHHL (lane 7). Cell lysates were prepared and analysed by Western blotting for JNK/SAPK phosphorylation with an antibody specific for phospho-JNKs (upper panel) and for SAPK/JNK content with an antibody against JNKs (lower panel). (c) BR293 cells were treated as described in (b) and lysates were analysed by Western blotting for p38^MAPK phosphorylation with an antibody specific for phospho-p38 (upper panel) and for p38 content with an antibody against p38 (lower panel).

murine STAT3 = experiment: STAT3-dependent luciferase reporter (SIE2-luc) in transfected COS-1 cells; format: cell-based; settings: COS-1 cells transfected with murine STAT3
Experimental: (c) COS-1 cells were transfected with an expression vector for STAT3, a STAT3-responsive luciferase reporter (SIE2-luc) and a control gene for β-galactosidase. […] After 6 hours cells were harvsted and reporter gene expression analysed. Results are normalised against β-galactosidase values and expressed as averages +/−SD (n=3).

CCCCCCCCCC(=O)CC(=O)N[C@H]1CCOC1=O [OdDHL, N-(3-oxo-dodecanoyl)-L-homoserine lactone]
STAT3 phosphorylation at sub-inhibitory concentration (STAT3; BR293 cells, 50 μM OdDHL): small increase
delayed STAT3 phosphorylation in response to serum (STAT3; BR293 cells, 100 μM pretreatment (FIG. 18c)): prevented the delayed STAT3 phosphorylation in response to serum
serum-induced phosphorylation of STAT3 (STAT3; BR293 cells, pre-incubation (FIG. 11 upper panel)): blocked the serum-induced phosphorylation of STAT3
concentration at which serum-induced STAT3 tyrosine phosphorylation was inhibited (STAT3; BR293 cells, pretreatment 15 minutes with increasing concentrations): 100 µM
threshold concentration for inactivation of serum-induced STAT3 phosphorylation (STAT3; FIG. 15): above 50 μM
growth of cultured cells (confluence) (BR293 cells [1]): grew poorly or not at all
inhibition of proliferation (BR293 cells [1]; over a 48-hour period): 70%-80%
nuclear morphology / viability after DAPI staining (BR293 cells [2]): induced DNA condensation and nuclear fragmentation
nuclear integrity by DAPI staining (MCF-7 cells): nuclear disruption
activation of ERKs by TPA (phosphorylation of ERK½) (ERKs): Neither OdDHL nor OHHL had any effect
activation of ERKs in response to serum (ERKs): Neither OdDHL nor OHHL had any effect
EGF-stimulated STAT3-dependent reporter gene expression, effect of co-treatment (murine STAT3): augmented

CCCC(=O)CC(=O)N[C@H]1CCOC1=O [OHHL, N-(3-oxohexanoyl)-L-homoserine lactone, reference compound]
effect on serum-induced STAT3 tyrosine phosphorylation (STAT3; BR293 cells, 100 μM): only a slight effect
growth of cultured cells (confluence) (BR293 cells [1]): reached confluence in 48 hours
nuclear morphology / viability after DAPI staining (BR293 cells [2]): remained viable
nuclear integrity by DAPI staining (MCF-7 cells): unaffected
activation of ERKs by TPA (phosphorylation of ERK½) (ERKs): Neither OdDHL nor OHHL had any effect
activation of ERKs in response to serum (ERKs): Neither OdDHL nor OHHL had any effect
EGF-stimulated STAT3-dependent reporter gene expression, effect of co-treatment (murine STAT3): had no effect
